Laboratory results reported in patent US6346260B1, “Microbicidal active ingredients” (Ciba Specialty Chemicals Corporation, priority 1999, dated 2002).
In brackets after ≈: the same amount, converted by molar mass.

Legend:
Format in all cases: cell-based
[1] = tested on: Escherichia coli NCTC 8196; experiment: MIC in microtitre plates, Escherichia coli; conditions: NCTC8196; Table 2; Escherichia coli NCTC 8196; 48 hours at 37° C.; ≦20% growth; read-out: MIC EC
Description: (§1) Determination of Antimicrobial Activity in Accordance with the Microtitre Plate Method Determination of the Minimum Inhibitory Concentration (MIC value) in Microtitre Plates casein-soybean flour-peptone bouillon for the preparation of the precultures of the test bacteria and yeast. Escherichia coli NCTC 8196 The test substances are predissolved in dimethyl sulfoxide (DMSO) and tested in a dilution series of 1:2. Bacteria and yeast are cultured overnight in CASO bouillon, the mould on mycological slant agar and rinsed off with 10 ml of 0.85% sodium chloride solution (+0.1% TritonX-100). All test organisms are adjusted to an organism count of 1-5*10^6 CFU/ml with 0.85% sodium chloride solution. The test substances are prepipetted into microtitre plates in an amount of 8 μl per well. Previously diluted test organism suspensions are diluted 1:100 in CASO bouillon (bacteria and yeast) and Sabouraud 2% glucose bouillon (mould) and added to the test substances in an amount of 192 μl per well. The test batches are incubated for 48 hours at 37° C. (bacteria and yeast) or for 5 days at 28° C. (mould). After incubation, the growth is determined by reference to the turbidity of the test batches (optical density) at 620 nm in a microplate reader. The minimum inhibitory concentration (MIC value) is the concentration of substance at which (compared with the growth of the control) an appreciable inhibition of the growth (≦20% growth) of the test organisms is ascertained. One microtitre plate is used for each test organism and substance concentration. All substances are tested in duplicate.

[2] = tested on: Pseudomonas aeruginosa CIP A-22; experiment: MIC in microtitre plates, Pseudomonas aeruginosa; conditions: CIPA22; Table 2; Pseudomonas aeruginosa CIP-A 22; 48 hours at 37° C.; ≦20% growth; read-out: MIC PA
Description: as §1, with “Pseudomonas aeruginosa CIP A-22” for “Escherichia coli NCTC 8196”

[3] = tested on: Candida albicans ATCC 10231; experiment: MIC in microtitre plates, Candida albicans; conditions: ATCC10231; Table 2; Candida albicans ATCC 10231; 48 hours at 37° C.; ≦20% growth; read-out: MIC CA
Description: as §1, with “Candida albicans ATCC 10231” for “Escherichia coli NCTC 8196”

[4] = tested on: Aspergillus niger ATCC 6275; experiment: MIC in microtitre plates, Aspergillus niger; conditions: ATCC6275, 120 h; Table 2; Aspergillus niger ATCC 6275; 5 days at 28° C.; ≦20% growth; read-out: MIC AN
Description: as §1, with “Mycological slant agar” for “casein-soybean flour-peptone bouillon”, “preculture” for “preparation”, “moulds. Aspergillus niger ATCC 6275” for “the precultures of the test bacteria and yeast. Escherichia coli NCTC 8196”

[5] = tested on: Staphylococcus hominis DSM 20368; experiment: MIC in microtitre plates, Staphylococcus hominis; conditions: DSM20368, Table 2, 48 hours at 37° C., ≦20% growth
Description: as §1, with “Staphylococcus hominis DSM 20328” for “Escherichia coli NCTC 8196”

| SMILES | MIC [1] | MIC [2] | MIC [3] | MIC [4] | MIC [5] |
| --- | --- | --- | --- | --- | --- |
| COc1ccccc1C(=O)CC(=O)c1ccc(O)cc1 [(105)] | > 120 µg/mL | > 120 µg/mL | > 120 µg/mL | > 120 µg/mL | > 120 µg/mL |
| Cc1ccc(O)c(C(=O)CC(=O)c2ccccc2)c1 [(112)] | > 120 µg/mL | > 120 µg/mL | > 120 µg/mL | > 120 µg/mL | > 120 µg/mL |
| O=C(CC(=O)c1cccs1)c1ccc(O)cc1 [(103)] | > 120 µg/mL | > 120 µg/mL | > 120 µg/mL | > 120 µg/mL | > 120 µg/mL |
| O=C(CC(=O)c1ccccc1O)c1ccccc1 [(115)] | > 120 µg/mL | > 120 µg/mL | > 120 µg/mL | > 120 µg/mL | > 120 µg/mL |
| O=C(CC(=O)c1cccc(C(F)(F)F)c1)c1ccc(O)cc1 [(110)] | 60 µg/mL (≈ 195 µM) | > 120 µg/mL | > 120 µg/mL | 60 µg/mL (≈ 195 µM) | > 120 µg/mL |
| Cc1ccccc1C(=O)CC(=O)c1ccc(O)cc1 [(106)] | > 120 µg/mL | > 120 µg/mL | > 120 µg/mL | > 120 µg/mL | > 120 µg/mL |
| Cc1cc(O)c(C(=O)CC(=O)c2ccccc2)cc1Cl [(113)] | > 120 µg/mL | > 120 µg/mL | > 120 µg/mL | > 120 µg/mL | > 120 µg/mL |
| COc1cc(C(=O)CC(=O)c2ccc(O)cc2)cc(OC)c1OC [(108)] | > 120 µg/mL | > 120 µg/mL | > 120 µg/mL | > 120 µg/mL | > 120 µg/mL |
| COc1ccc(C(=O)CC(=O)c2ccc(O)cc2)cc1OC [(107)] | 120 µg/mL (≈ 400 µM) | > 120 µg/mL | > 120 µg/mL | 120 µg/mL (≈ 400 µM) | > 120 µg/mL |
| O=C(CC(=O)c1cc(Br)ccc1O)c1ccccc1 [(114)] | > 120 µg/mL | > 120 µg/mL | > 120 µg/mL | > 120 µg/mL | > 120 µg/mL |
| O=C(CC(=O)c1ccc(O)cc1)c1ccccc1 [(111)] | > 120 µg/mL | > 120 µg/mL | > 120 µg/mL | > 120 µg/mL | > 120 µg/mL |
| COC(=O)c1cccc(C(=O)CC(=O)c2ccc(O)cc2)c1 [(109)] | > 120 µg/mL | > 120 µg/mL | > 120 µg/mL | > 120 µg/mL | > 120 µg/mL |
